Results as given in article PMC7313537 (PLoS ONE, 2020).

Experiments:
Assay in all cases: Broader kinase panel (PerkinElmer)
Assay type in all cases: biochemical
Settings in all cases: 100 nM; read-out: Average Percent Inhibition
MARK2 = target: T1, MARK2 (Homo sapiens, UniProt Q7KZI7)
T1 construct: purchased In-house HTRF panel (56 kinases) and PerkinElmer (161-kinase panel)
From the text: (§1) […]. […] […].

NTRK2 (TRKB) = target: T2, NTRK2 (TRKB) (Homo sapiens, UniProt Q16620)
T2 construct: purchased In-house HTRF panel (56 kinases) and PerkinElmer (161-kinase panel)
T2 sequence (Q16620 32-822): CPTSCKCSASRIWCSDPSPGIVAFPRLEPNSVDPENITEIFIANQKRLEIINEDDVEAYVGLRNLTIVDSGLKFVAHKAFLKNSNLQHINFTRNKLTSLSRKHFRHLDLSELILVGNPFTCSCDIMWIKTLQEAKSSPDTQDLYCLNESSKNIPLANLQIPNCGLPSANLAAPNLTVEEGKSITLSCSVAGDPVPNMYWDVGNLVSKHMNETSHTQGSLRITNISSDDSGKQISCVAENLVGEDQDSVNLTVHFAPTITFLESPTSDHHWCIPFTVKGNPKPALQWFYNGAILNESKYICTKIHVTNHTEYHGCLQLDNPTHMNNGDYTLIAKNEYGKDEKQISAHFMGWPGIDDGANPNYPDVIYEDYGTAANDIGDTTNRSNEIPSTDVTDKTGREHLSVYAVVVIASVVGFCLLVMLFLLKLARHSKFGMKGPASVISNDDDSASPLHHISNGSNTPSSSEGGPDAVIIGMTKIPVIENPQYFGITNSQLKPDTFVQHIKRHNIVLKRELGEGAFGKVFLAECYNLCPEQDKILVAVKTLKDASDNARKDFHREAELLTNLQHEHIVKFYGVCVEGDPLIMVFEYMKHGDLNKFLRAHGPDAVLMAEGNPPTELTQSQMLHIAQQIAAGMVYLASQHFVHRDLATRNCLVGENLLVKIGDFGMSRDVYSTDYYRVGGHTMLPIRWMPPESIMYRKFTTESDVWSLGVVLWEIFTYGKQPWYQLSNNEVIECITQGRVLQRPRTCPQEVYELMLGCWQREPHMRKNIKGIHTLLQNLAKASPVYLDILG
From the text: as §1

GCK = target: T3, GCK (Homo sapiens, UniProt Q12851)
T3 construct: purchased In-house HTRF panel (56 kinases) and PerkinElmer (161-kinase panel)
From the text: as §1

AKT1 = AKT1 (Homo sapiens, UniProt P31749)
Chain of AKT1 (P31749 whole entry, species assumed): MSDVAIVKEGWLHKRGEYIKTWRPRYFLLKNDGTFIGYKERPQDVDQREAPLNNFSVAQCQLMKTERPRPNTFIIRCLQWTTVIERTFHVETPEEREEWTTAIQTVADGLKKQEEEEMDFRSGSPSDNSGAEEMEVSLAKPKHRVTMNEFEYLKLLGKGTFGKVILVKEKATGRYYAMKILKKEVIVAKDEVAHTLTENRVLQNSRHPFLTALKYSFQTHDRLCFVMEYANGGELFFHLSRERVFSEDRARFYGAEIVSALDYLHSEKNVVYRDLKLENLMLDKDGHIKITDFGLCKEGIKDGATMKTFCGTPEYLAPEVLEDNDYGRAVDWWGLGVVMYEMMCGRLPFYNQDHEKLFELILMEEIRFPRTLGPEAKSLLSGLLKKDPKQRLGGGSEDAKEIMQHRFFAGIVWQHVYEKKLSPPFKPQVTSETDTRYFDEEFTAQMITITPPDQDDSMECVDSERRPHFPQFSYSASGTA
From the text: as §1

PKD2 = target: T4, PKD2 (Homo sapiens, UniProt Q9BZL6)
T4 construct: purchased In-house HTRF panel (56 kinases) and PerkinElmer (161-kinase panel)
From the text: as §1

EGFR (ErbB1) T790M L858R = target: T5, EGFR (ErbB1) T790M L858R (Homo sapiens, UniProt P00533, L858R/T790M)
T5 construct: purchased In-house HTRF panel (56 kinases) and PerkinElmer (161-kinase panel)
From the text: as §1

p38a = target: T6, p38a (Homo sapiens, UniProt Q16539)
T6 construct: purchased In-house HTRF panel (56 kinases) and PerkinElmer (161-kinase panel)
From the text: as §1

PKD3 = target: T7, PKD3 (Homo sapiens, UniProt O94806)
T7 construct: purchased In-house HTRF panel (56 kinases) and PerkinElmer (161-kinase panel)
From the text: as §1

MAPKAPK3 = target: T8, MAPKAPK3 (Homo sapiens, UniProt Q16644)
T8 construct: purchased In-house HTRF panel (56 kinases) and PerkinElmer (161-kinase panel)
From the text: as §1

DYRK3 = target: T9, DYRK3 (Homo sapiens, UniProt O43781)
T9 construct: purchased In-house HTRF panel (56 kinases) and PerkinElmer (161-kinase panel)
From the text: as §1

CDK2 = CDK2 (Homo sapiens, UniProt P24941)
From the text: as §1

NEK2 = target: T10, NEK2 (Homo sapiens, UniProt P51955)
T10 construct: purchased In-house HTRF panel (56 kinases) and PerkinElmer (161-kinase panel)
From the text: as §1

ABL = target: T11, ABL (Homo sapiens, UniProt P00519)
T11 construct: purchased In-house HTRF panel (56 kinases) and PerkinElmer (161-kinase panel)
From the text: as §1

PKA = target: T12, PKA (Homo sapiens, UniProt P17612)
T12 construct: purchased In-house HTRF panel (56 kinases) and PerkinElmer (161-kinase panel)
From the text: as §1

PYK2 = target: T13, PYK2 (Homo sapiens, UniProt Q14289)
T13 construct: purchased In-house HTRF panel (56 kinases) and PerkinElmer (161-kinase panel)
From the text: as §1

PKG1-beta = target: T14, PKG1-beta (Homo sapiens, UniProt Q13976)
T14 construct: purchased In-house HTRF panel (56 kinases) and PerkinElmer (161-kinase panel)
From the text: as §1

PKC-epsilon = target: T15, PKC-epsilon (Homo sapiens, UniProt Q02156)
T15 construct: purchased In-house HTRF panel (56 kinases) and PerkinElmer (161-kinase panel)
From the text: as §1

RSK4 = target: T16, RSK4 (Homo sapiens, UniProt Q9UK32)
T16 construct: purchased In-house HTRF panel (56 kinases) and PerkinElmer (161-kinase panel)
From the text: as §1

HIPK1 = target: T17, HIPK1 (Homo sapiens, UniProt Q86Z02)
T17 construct: purchased In-house HTRF panel (56 kinases) and PerkinElmer (161-kinase panel)
From the text: as §1

MST3 (STK24) = target: T18, MST3 (STK24) (Homo sapiens, UniProt Q9Y6E0)
T18 construct: purchased In-house HTRF panel (56 kinases) and PerkinElmer (161-kinase panel)
From the text: as §1

TYRO3 = target: T19, TYRO3 (Homo sapiens, UniProt Q06418)
T19 construct: purchased In-house HTRF panel (56 kinases) and PerkinElmer (161-kinase panel)
From the text: as §1

Ca MKII_beta = target: T20, Ca MKII_beta (Homo sapiens, UniProt Q13554)
T20 construct: purchased In-house HTRF panel (56 kinases) and PerkinElmer (161-kinase panel)
T20 sequence (Q13554 whole entry): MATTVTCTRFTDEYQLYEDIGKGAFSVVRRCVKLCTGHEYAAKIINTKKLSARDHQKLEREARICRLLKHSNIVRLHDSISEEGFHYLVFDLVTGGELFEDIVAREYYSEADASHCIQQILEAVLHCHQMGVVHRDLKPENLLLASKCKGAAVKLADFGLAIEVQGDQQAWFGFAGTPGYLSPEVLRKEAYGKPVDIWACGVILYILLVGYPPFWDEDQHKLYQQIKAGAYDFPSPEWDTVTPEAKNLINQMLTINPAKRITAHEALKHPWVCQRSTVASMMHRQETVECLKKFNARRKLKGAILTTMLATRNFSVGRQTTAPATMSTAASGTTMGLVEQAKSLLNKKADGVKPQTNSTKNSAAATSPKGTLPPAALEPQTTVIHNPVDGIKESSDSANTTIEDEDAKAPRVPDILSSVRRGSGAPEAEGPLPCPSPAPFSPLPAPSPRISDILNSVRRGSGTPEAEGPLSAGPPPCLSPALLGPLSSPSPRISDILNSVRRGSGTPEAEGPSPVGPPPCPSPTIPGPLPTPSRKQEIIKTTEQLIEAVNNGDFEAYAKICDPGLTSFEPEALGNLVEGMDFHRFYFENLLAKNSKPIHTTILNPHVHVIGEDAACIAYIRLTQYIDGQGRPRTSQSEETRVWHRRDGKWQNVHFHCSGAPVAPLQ
From the text: as §1

DYRK4 = target: T21, DYRK4 (Homo sapiens, UniProt Q9NR20)
T21 construct: purchased In-house HTRF panel (56 kinases) and PerkinElmer (161-kinase panel)
From the text: as §1

MST1R = target: T22, MST1R (Homo sapiens, UniProt Q04912)
T22 construct: purchased In-house HTRF panel (56 kinases) and PerkinElmer (161-kinase panel)
T22 sequence (Q04912 25-1400): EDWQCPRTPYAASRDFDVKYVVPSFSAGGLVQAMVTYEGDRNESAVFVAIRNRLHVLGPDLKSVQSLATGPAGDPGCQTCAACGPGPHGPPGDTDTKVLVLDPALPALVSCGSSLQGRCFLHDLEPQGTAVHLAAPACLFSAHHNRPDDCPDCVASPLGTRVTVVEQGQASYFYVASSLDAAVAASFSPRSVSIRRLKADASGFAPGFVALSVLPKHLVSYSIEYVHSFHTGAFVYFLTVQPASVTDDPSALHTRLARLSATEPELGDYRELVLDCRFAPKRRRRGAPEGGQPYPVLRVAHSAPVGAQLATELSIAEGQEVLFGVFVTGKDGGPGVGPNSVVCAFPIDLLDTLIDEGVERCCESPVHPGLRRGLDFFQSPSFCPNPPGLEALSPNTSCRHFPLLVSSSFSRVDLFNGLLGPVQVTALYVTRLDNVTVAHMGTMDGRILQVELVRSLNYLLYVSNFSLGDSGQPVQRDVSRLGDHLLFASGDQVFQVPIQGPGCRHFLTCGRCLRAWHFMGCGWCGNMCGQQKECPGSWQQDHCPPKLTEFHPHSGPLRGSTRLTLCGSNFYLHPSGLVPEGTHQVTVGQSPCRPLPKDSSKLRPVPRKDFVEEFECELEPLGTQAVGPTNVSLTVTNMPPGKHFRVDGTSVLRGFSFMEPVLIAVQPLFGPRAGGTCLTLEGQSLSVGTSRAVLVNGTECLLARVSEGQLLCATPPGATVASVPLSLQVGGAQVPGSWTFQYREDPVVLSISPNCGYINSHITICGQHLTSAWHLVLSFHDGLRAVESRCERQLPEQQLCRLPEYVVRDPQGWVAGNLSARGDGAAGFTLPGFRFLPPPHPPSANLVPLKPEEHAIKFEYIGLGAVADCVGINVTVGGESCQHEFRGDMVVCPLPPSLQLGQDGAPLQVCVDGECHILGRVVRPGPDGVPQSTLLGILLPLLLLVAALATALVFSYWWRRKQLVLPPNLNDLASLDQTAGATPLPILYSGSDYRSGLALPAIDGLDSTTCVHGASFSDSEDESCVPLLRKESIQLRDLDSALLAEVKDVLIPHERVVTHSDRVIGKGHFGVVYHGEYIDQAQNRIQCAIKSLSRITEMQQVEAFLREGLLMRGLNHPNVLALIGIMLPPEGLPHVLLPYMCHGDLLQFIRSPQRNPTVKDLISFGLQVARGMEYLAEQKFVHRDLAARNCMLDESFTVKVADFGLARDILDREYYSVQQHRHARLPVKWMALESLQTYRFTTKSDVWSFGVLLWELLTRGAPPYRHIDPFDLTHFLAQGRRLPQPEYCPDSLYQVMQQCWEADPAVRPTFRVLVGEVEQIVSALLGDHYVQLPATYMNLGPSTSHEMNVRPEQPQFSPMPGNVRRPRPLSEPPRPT
From the text: as §1

ABL1(E255K) = target: T23, ABL1(E255K) (Homo sapiens, UniProt P00519, E255K)
T23 construct: purchased In-house HTRF panel (56 kinases) and PerkinElmer (161-kinase panel)
From the text: as §1

NuaK1 = target: T24, NuaK1 (Homo sapiens, UniProt O60285)
T24 construct: purchased In-house HTRF panel (56 kinases) and PerkinElmer (161-kinase panel)
T24 sequence (O60285 whole entry): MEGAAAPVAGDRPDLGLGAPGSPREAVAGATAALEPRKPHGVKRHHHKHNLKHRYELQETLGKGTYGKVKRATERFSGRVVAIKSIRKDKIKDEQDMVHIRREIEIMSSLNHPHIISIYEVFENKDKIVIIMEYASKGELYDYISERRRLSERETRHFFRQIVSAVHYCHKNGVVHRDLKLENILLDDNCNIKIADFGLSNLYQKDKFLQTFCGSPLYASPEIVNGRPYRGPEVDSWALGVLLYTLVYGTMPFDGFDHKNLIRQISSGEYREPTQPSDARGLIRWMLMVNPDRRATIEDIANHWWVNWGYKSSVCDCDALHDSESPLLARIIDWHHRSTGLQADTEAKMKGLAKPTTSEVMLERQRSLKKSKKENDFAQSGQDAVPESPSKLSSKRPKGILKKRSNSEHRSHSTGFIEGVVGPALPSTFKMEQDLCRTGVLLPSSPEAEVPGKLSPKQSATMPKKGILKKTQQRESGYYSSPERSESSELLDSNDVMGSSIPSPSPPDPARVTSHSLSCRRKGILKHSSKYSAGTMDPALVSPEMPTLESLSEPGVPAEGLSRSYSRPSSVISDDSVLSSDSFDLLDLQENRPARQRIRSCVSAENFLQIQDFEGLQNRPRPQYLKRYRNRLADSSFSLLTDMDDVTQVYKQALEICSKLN
From the text: as §1

CDK1/Cycline B1 = target: T25, CDK1/Cycline B1 (Homo sapiens, UniProt P06493)
T25 construct: purchased In-house HTRF panel (56 kinases) and PerkinElmer (161-kinase panel)
From the text: as §1

Abl (Q252H) = target: T26, Abl (Q252H) (Homo sapiens, UniProt P00519, Q252H)
T26 construct: purchased In-house HTRF panel (56 kinases) and PerkinElmer (161-kinase panel)
From the text: as §1

MINK = MINK (Homo sapiens, UniProt Q8N4C8)
From the text: as §1

CLK2 = target: T27, CLK2 (Homo sapiens, UniProt P49760)
T27 construct: purchased In-house HTRF panel (56 kinases) and PerkinElmer (161-kinase panel)
From the text: as §1

PRKX = target: T28, PRKX (Homo sapiens, UniProt P51817)
T28 construct: purchased In-house HTRF panel (56 kinases) and PerkinElmer (161-kinase panel)
T28 sequence (P51817 whole entry): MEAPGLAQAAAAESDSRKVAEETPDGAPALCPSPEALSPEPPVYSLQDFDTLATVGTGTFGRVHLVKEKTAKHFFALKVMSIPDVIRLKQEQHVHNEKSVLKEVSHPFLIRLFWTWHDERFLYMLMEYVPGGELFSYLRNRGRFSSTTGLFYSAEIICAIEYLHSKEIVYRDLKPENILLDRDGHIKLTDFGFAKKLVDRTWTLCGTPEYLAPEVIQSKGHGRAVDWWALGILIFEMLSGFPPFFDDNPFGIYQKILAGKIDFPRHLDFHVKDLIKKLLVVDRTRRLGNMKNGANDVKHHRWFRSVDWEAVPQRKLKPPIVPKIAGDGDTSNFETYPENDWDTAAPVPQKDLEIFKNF
From the text: as §1

PIM2 = target: T29, PIM2 (Homo sapiens, UniProt Q9P1W9)
T29 construct: purchased In-house HTRF panel (56 kinases) and PerkinElmer (161-kinase panel)
T29 sequence (Q9P1W9 whole entry, species assumed): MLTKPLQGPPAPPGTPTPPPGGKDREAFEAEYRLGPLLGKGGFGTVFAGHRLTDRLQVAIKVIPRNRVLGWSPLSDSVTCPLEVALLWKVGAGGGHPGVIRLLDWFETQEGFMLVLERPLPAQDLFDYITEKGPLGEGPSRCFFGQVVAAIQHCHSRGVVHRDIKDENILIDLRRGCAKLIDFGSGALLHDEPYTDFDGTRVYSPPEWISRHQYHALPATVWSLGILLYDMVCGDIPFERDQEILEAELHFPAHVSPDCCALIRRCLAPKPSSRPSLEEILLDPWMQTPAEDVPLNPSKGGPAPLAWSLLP
From the text: as §1

HIPK2 = target: T30, HIPK2 (Homo sapiens, UniProt Q9H2X6)
T30 construct: purchased In-house HTRF panel (56 kinases) and PerkinElmer (161-kinase panel)
From the text: as §1

CK1g3 (CSNK1G3) = target: T31, CK1g3 (CSNK1G3) (Homo sapiens, UniProt Q9Y6M4)
T31 construct: purchased In-house HTRF panel (56 kinases) and PerkinElmer (161-kinase panel)
From the text: as §1

PKC-beta1 = target: T32, PKC-beta1 (Homo sapiens, UniProt P05771)
T32 construct: purchased In-house HTRF panel (56 kinases) and PerkinElmer (161-kinase panel)
From the text: as §1

PKC-alpha = target: T33, PKC-alpha (Homo sapiens, UniProt P17252)
T33 construct: purchased In-house HTRF panel (56 kinases) and PerkinElmer (161-kinase panel)
From the text: as §1

PDGFR_alpha = target: T34, PDGFR_alpha (Homo sapiens, UniProt P16234)
T34 construct: purchased In-house HTRF panel (56 kinases) and PerkinElmer (161-kinase panel)
From the text: as §1

SYK = SYK (Homo sapiens, UniProt P43405)
From the text: as §1

RSK2 = RSK2 (Homo sapiens, UniProt P51812)
From the text: as §1

Erk1 = target: T35, Erk1 (Homo sapiens, UniProt P27361)
T35 construct: purchased In-house HTRF panel (56 kinases) and PerkinElmer (161-kinase panel)
T35 sequence (P27361 whole entry): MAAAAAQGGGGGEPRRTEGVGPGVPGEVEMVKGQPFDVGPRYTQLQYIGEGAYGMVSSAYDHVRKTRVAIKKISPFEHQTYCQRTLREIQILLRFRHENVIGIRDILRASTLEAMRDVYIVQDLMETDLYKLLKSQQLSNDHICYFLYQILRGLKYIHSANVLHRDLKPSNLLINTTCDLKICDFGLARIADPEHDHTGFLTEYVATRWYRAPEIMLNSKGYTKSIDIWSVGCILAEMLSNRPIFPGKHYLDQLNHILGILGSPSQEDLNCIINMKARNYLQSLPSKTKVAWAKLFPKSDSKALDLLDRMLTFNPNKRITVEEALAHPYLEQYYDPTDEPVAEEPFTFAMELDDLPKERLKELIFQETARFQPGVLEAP
From the text: as §1

DAPK1 = target: T36, DAPK1 (Homo sapiens, UniProt P53355)
T36 construct: purchased In-house HTRF panel (56 kinases) and PerkinElmer (161-kinase panel)
From the text: as §1

BLK = target: T37, BLK (Homo sapiens, UniProt P51451)
T37 construct: purchased In-house HTRF panel (56 kinases) and PerkinElmer (161-kinase panel)
From the text: as §1

PAK4 = PAK4 (Homo sapiens, UniProt O96013)
From the text: as §1

CCN1C(=O)N(c2c(F)c(OC)cc(OC)c2F)Cc2cnc3[nH]c(CN4CCOCC4)cc3c21 [INCB054828, pemigatinib]
inhibition at 0.1 µM (MARK2): 5% | inhibition at 0.1 µM (NTRK2 (TRKB)): 1% | inhibition at 0.1 µM (GCK): 1% | inhibition at 0.1 µM (AKT1): 2% | inhibition at 0.1 µM (PKD2): -7% | inhibition at 0.1 µM (EGFR (ErbB1) T790M L858R): 5% | inhibition at 0.1 µM (p38a): 1% | inhibition at 0.1 µM (PKD3): 0% | inhibition at 0.1 µM (MAPKAPK3): 1% | inhibition at 0.1 µM (DYRK3): 0% | inhibition at 0.1 µM (CDK2): -2% | inhibition at 0.1 µM (NEK2): -4% | inhibition at 0.1 µM (ABL): -4% | inhibition at 0.1 µM (PKA): 1% | inhibition at 0.1 µM (PYK2): -1% | inhibition at 0.1 µM (PKG1-beta): -2% | inhibition at 0.1 µM (PKC-epsilon): 1% | inhibition at 0.1 µM (RSK4): -1% | inhibition at 0.1 µM (HIPK1): -1% | inhibition at 0.1 µM (MST3 (STK24)): 7% | inhibition at 0.1 µM (TYRO3): 1% | inhibition at 0.1 µM (Ca MKII_beta): -9% | inhibition at 0.1 µM (DYRK4): -4% | inhibition at 0.1 µM (MST1R): 1% | inhibition at 0.1 µM (ABL1(E255K)): 6% | inhibition at 0.1 µM (NuaK1): -3% | inhibition at 0.1 µM (CDK1/Cycline B1): 5% | inhibition at 0.1 µM (Abl (Q252H)): 1% | inhibition at 0.1 µM (MINK): 2% | inhibition at 0.1 µM (CLK2): -3% | inhibition at 0.1 µM (PRKX): 0% | inhibition at 0.1 µM (PIM2): -5% | inhibition at 0.1 µM (HIPK2): -1% | inhibition at 0.1 µM (CK1g3 (CSNK1G3)): 0% | inhibition at 0.1 µM (PKC-beta1): 7% | inhibition at 0.1 µM (PKC-alpha): 16% | inhibition at 0.1 µM (PDGFR_alpha): -4% | inhibition at 0.1 µM (SYK): -2% | inhibition at 0.1 µM (RSK2): -2% | inhibition at 0.1 µM (Erk1): 1% | inhibition at 0.1 µM (DAPK1): 1% | inhibition at 0.1 µM (BLK): -10% | inhibition at 0.1 µM (PAK4): 5%
